# Values of other authors as cited in patent publication US20070071689A1, “Advantageous combination for inhalation of nacystelyn and bronchodilators” (GALEPHAR M/F, priority 2003, published 2007).
# Tests used:
# [1] = administration via the inhalation route
# cystic fibrosis patients = conditions: in comparison to placebo
# [2] = in comparison to ACC
Compound,bronchospasms (side effects) [1],number and severity of lung exacerbations (cystic fibrosis patients),active dose [2],mucolytic and antioxidant activity [2]
"CC(=O)N[C@@H](CS)C(=O)O [ACC, acetylcysteine]",can be responsible for reflex bronchospasms,,,
L-Lysine N-Acetylcysteinate [NAL],,significantly decrease the number and severity of lung exacerbations,active at lower doses than ACC,superior to the activity of ACC
